These results are taken from patent US20240172744A1, “H[…] SOLUTION FOR REPAIRING KIDNEY INJURY AND USE THEREOF” (WUHAN UNIVERSITY, priority 2022, published 2024).

Assay [1] deals with kidney from a donation after circulatory death donor of a rat. As to the kind of experiment: H&E pathological examination of renal tissues after 2 h of kidney perfusion. Particulars: Examples 1-4: 200, 400, 600, 800 μM in KPS-1 solution; warm ischemia 30, 45, 60, 90 min; after 2 h perfusion; FIGS. 3A-3D. On the procedure: After 2 h of kidney perfusion according to the methods of Examples 1-4, 1 cm^3 of renal tissues were taken out and fixed in neutral formaldehyde for storage, and then dehydrated, embedded in paraffin, sectioned and then stained by H&E, and finally photographed under a microscope to observe morphological changes and pathological analysis of tissues.

For assay [2] the test system is unchanged. The assay can be described thus: hypothermic oxygenated perfusion of rat donation-after-circulatory-death kidney ex-vivo, perfusion parameters (intrarenal resistance). As to conditions: Examples 1-4: 200, 400, 600, 800 μM in KPS-1 solution, warm ischemia 30, 45, 60, 90 min, 0-4 °C, 30 mmHg, 2 h perfusion, FIGS. 2A-2D. On the procedure:
The method for performing hypothermic oxygenated perfusion on a kidney from a donation after circulatory death donor of a rat by using the perfusion fluid according to the examples of the present invention specifically includes the following steps: for a donor organ donated after a cardiac death, in the kidney acquisition process, performing in-situ organ lavage by using heparin sodium saline with a temperature of 4° C. to effectively remove thrombus in large blood vessels and to relieve the obstacle of the thrombus to the delivery of carbon monoxide released by carbon monoxide-releasing molecules to the kidney, combining ex-vivo hypothermic oxygenated perfusion with the carbon monoxide released by the carbon monoxide-releasing molecules to specifically achieve the vasodilation, the removal of microthrombus and the recovery of the patency of the microcirculation, and evaluating the function and quality of the kidney through perfusion parameters (perfusion flow and intrarenal resistance) and a macroscopic kidney state, wherein the perfusion parameters can reflect the kidney function to a certain degree; a kidney with a good function can be subjected to allogeneic kidney transplantation and a kidney with a poor function will be discarded. […]

For the substance carbon monoxide-releasing molecules-401, the “pathological examination of renal tissues (glomeruli, renal tubules, renal interstitium; H&E)” value in assay [1] is “no obvious abnormality found”. The “intrarenal resistance during hypothermic oxygenated perfusion” value in assay [2] (listed as carbon monoxide-releasing molecule) was “continuously decrease”; in assay [2] (listed as carbon monoxide-releasing molecules), “significantly reduced and maintained to be stable”.
